Test results as given in patent US10266544B2, “Aryl substituted aminomethyl spectinomycin analogs as antibacterial agents” (ST. JUDE CHILDREN'S RESEARCH HOSPITAL, INC., priority 2013, dated 2019).
In brackets after ≈: the same amount, converted by molar mass. Counter-ions that a name gives are not always drawn. Like-named read-outs stand apart in the source and are kept apart here.

Assays:
Format in all cases: cell-based
[1] = test system: Neisseria meningitides (ATCC 13077); assay: Disc diffusion assay; conditions: ATCC13077, 4 μg per disc, read-out: Zone of inhibition N.m.
[2] = test system: Legionella pneumophila (ATCC 33153); assay: microbe, parasite or virus in culture; conditions: ATCC33153, 72 h, read-out: Zone of inhibition L.p.
[3] = test system: Bacillus anthracis; assay: microbe, parasite or virus in culture; conditions: read-out: MIC B.a.
[4] = test system: Streptococcus pneumoniae (R6); assay: MIC determination, microbroth dilution; conditions: read-out: MIC S. pn.
[5] = test system: Pseudomonas aeruginosa (PA01); assay: MIC determination, microbroth dilution
[6] = test system: MRSA, Staphylococcus aureus (NRS70); assay: MIC determination, microbroth dilution; conditions: Staphylococcus aureus (NRS70); read-out: MIC MRSA
[7] = test system: Neisseria gonorrhoeae (ATCC 49226); assay: Disc diffusion assay; conditions: ATCC49226, 4 μg per disc, read-out: Zone of inhibition N.g.
[8] = test system: Bacillus subtilis (ATCC 23857); assay: MIC determination, microbroth dilution
[9] = test system: Moraxella catarrhalis; assay: MIC determination (Table 6)
[10] = test system: Listeria monocytogenes; assay: MIC determination (Table 6)
[11] = test system: Enterococcus faecalis (ATCC 33186); assay: MIC determination, microbroth dilution; conditions: ATCC33186; Enterococcus faecalis (ATCC 33186); read-out: MIC E.f.
[12] = test system: Bacillus anthracis, Sterne 34F2; assay: microbe, parasite or virus in culture; conditions: STERNE34F2, read-out: MIC B.a.
[13] = test system: M. tuberculosis clinical isolates; assay: microbe, parasite or virus in culture; conditions: Mycobacterium tuberculosis
[14] = test system: Burkholderia cepacia (ATCC 25416); assay: MIC determination, microbroth dilution; conditions: Burkholderia cepacia
[15] = test system: Proteus mirabilis (ATCC 25933); assay: MIC determination, microbroth dilution; conditions: ATCC25933
[16] = test system: Staphylococcus aureus (ATCC 29213); assay: MIC determination, microbroth dilution; conditions: ATCC29213; Staphylococcus aureus (ATCC 29213); read-out: MIC S.a.
[17] = test system: Haemophilus influenza (ATCC 49247); assay: microbe, parasite or virus in culture; conditions: ATCC49247; Haemophilus influenza; 4 μg per disc; range of at least two experiments; read-out: Zone of inhibition H.i.
[18] = test system: Stenotrophomonas maltophilia (ATCC 13637); assay: MIC determination, microbroth dilution
[19] = test system: Proteus vulgaris (ATCC 33420); assay: MIC determination, microbroth dilution; conditions: ATCC33420
[20] = test system: Streptococcus pyogenes (ATCC 700294); assay: MIC determination, microbroth dilution
[21] = test system: Neisseria gonorrhoeae (ATCC 49226); assay: Agar MIC determination (Alamar Blue); conditions: ATCC49226, agar MIC, read-out: MIC N.g.
[22] = test system: acinetobacter baumannii (ATCC 19606); assay: MIC determination, microbroth dilution; conditions: ATCC19606
[23] = test system: Escherichia coli (ATCC 700926); assay: MIC determination, microbroth dilution; conditions: ATCC700926; Escherichia coli (ATCC 700926); read-out: MIC E.c.
[24] = test system: E. coli K12 ΔtolC; assay: microbe, parasite or virus in culture; conditions: Escherichia coli, read-out: MIC E.c. Δtolc
[25] = test system: Klebsiella pneumoniae (ATCC 33495); assay: MIC determination, microbroth dilution; conditions: ATCC33495
[26] = ATCC23857, Bacillus subtilis (ATCC 23857), read-out: MIC B.s.
[27] = ATCC25416, read-out: MIC B.c., Burkholderia cepacia, Table 6
[28] = ATCC13637, Stenotrophomonas maltophilia (ATCC 13637), read-out: MIC S.m.
[29] = ATCC700294, Streptococcus pyogenes (ATCC 700294), read-out: MIC S. py.
[30] = ATCC25416, read-out: MIC B.c., Burkholderia cepacia (ATCC 25416)

SMILES | zone of inhibition at 4 µg/disc [1] [mm] | zone of inhibition at 4 µg/disc [2] [mm] | MIC [3] [mg/L] | MIC ([4]; Streptococcus pneumoniae (R6)) [mg/L] | MIC [5] [mg/L] | MIC [6] [mg/L] | zone of inhibition at 4 µg/disc [7] [mm] | MIC [8, 26] [mg/L] | MIC [9] [mg/L] | MIC [10] [mg/L] | MIC [12] [mg/L] | MIC ([13]; H37RV, read-out: MIC H37Rv) [mg/L] | MIC [14, 27] [mg/L] | MIC [15] [mg/L] | MIC [16] [mg/L] | zone of inhibition at 4 µg/disc [17] [mm] | MIC [18, 28] [mg/L] | MIC [19] [mg/L] | MIC [20, 29] [mg/L] | MIC [22] [mg/L] | other results
CN[C@@H]1[C@H](O)[C@H](NC)[C@H]2O[C@]3(O)[C@H](O[C@@H]2[C@H]1O)O[C@H](C)C[C@@]3(O)CNCc1cccc(OC(F)(F)F)c1 [compound 25, 3′-(R)-3′-[(3-trifluoromethoxyl)benzylaminomethyl)]dihydrospectinomycin Trihydrochloride] | 18 | 19 | 25 | 1.6 to 3.1 | 50 to 100 | 50 | 18 | 12.5 to 25 | 6.3 | 6.3 | 25 | 200 | > 200 | > 200 | 25 to 50 | 9 to 10 | 12.5 to 25 | > 200 | 1.6 |  | MIC [11]: 12.5 to 25 mg/L
CN[C@@H]1[C@H](O)[C@H](NC)[C@H]2O[C@]3(O)[C@H](O[C@@H]2[C@H]1O)O[C@H](C)C[C@@]3(O)CNCc1cnc[nH]1 [compound 20] |  |  | 50 to 100 (≈ 113 to 225 µM) | 25 to 50 (≈ 56.4 to 113 µM) | 200 (≈ 451 µM) | ≥ 200 |  | 25 (≈ 56.4 µM) |  |  | 50 to 100 (≈ 113 to 225 µM) | 6.3 (≈ 14.2 µM) | 100 to 200 (≈ 225 to 451 µM) | 200 (≈ 451 µM) | 200 (≈ 451 µM) |  | 3.1 to 6.3 (≈ 6.99 to 14.2 µM) | 100 to 200 (≈ 225 to 451 µM) | 50 (≈ 113 µM) | > 200 | MIC [21]: 100 to 200 mg/L (≈ 225 to 451 µM); MIC [23]: 50 mg/L (≈ 113 µM); MIC [24]: 25 mg/L (≈ 56.4 µM); MIC [25]: 50 to 100 mg/L (≈ 113 to 225 µM); MIC [11]: 100 mg/L (≈ 225 µM); MIC [14, 30]: 100 to 200 mg/L (≈ 225 to 451 µM)
CN[C@@H]1[C@H](O)[C@H](NC)[C@H]2O[C@]3(O)[C@H](O[C@@H]2[C@H]1O)O[C@H](C)C[C@@]3(O)CNCCc1ccc(OC)cc1 [compound 53, 3′-(R)-3′-[(4-methoxy)phenethylaminomethyl]dihydrospectinomycin Trihydrochloride] | 10 | 30 | 25 to 50 |  | > 200 | 100 | 12 |  | 3.1 | 6.3 | 25 to 50 | 6.3 | > 200 | > 200 | 25 | 11 |  | 200 |  | > 200 | MIC ([4]; Streptococcus pneumoniae): 12.5 mg/L; MIC [23]: 50 mg/L; MIC [24]: 12.5 mg/L; MIC [25]: 100 to 200 mg/L; MIC ([8]; Bacillus subtilis, ATCC23857, read-out: MIC B.s.): 12.5 mg/L; MIC ([13]; read-out: MIC TN022): 12.5 mg/L; MIC ([13]; read-out: MIC TN026): 12.5 mg/L; MIC [14, 30]: > 200 mg/L; MIC ([18]; Stenotrophomonas maltophilia, ATCC13637, read-out: MIC S.m.): 12.5 mg/L; MIC ([20]; Streptococcus pyogenes, ATCC700294, read-out: MIC S. py.): 12.5 to 25 mg/L
CN[C@@H]1[C@H](O)[C@H](NC)[C@H]2O[C@]3(O)[C@H](O[C@@H]2[C@H]1O)O[C@H](C)C[C@@]3(O)CNCCc1cccs1 [compound 61, 3′-(R)-3′-[((2-(thiophen-2-yl)ethyl)aminomethyl]dihydrospectinomycintrihydrobromide] | 14 | 30 | 12.5 to 50 | 6.3 | > 200 | 25 to 50 | 13 | 6.3 | 1.6 | 6.3 | 12.5 to 50 | 6.3 | ≥ 200 | 200 | 12.5 | 14 | 12.5 | 100 to 200 | 12.5 | > 200 | MIC [23]: 25 mg/L; MIC [24]: 3.1 to 6.3 mg/L; MIC [25]: 50 mg/L; MIC ([13]; read-out: MIC TN022): 6.3 mg/L; MIC ([13]; read-out: MIC TN026): 6.3 mg/L; MIC [14, 30]: ≥ 200 mg/L
